Results published in US5741782A, “Antibiotic cocktail and method of use” (Cryolife, Inc., priority 1996, dated 1998).
“And” between values parts separate entries of the source, which are not always exact repeats. Equal entries are not always repeated. Where two headings read alike, the source gives them in different places.

Assays:
[1] = test system: Candida albicans ATCC strain 14053; assay: survival of Candida albicans in antifungal cocktails (membrane filtration enumeration); assay type: cell-based; details: Example 14; for surviving yeast, Tube B: Tube B (734 CFU/ml at time zero), 35° C.; for fungicidal activity (in words): Tube B, fluconazole 100 μg/ml, amphotericin B 0.6 μg/ml, or fluconazole 100 + amphotericin B 0.3 μg/ml
Procedure: The Candida albicans used in these studies was ATCC strain 14053 (American Type Culture Collection). The purity of the strain was verified before and after cultivation.
The test organism was cultured on a Sabouraud Agar Plate, streaked for isolation, and incubated at 35° C. for 24 hours. A single colony was removed using a sterile cotton swab and placed in 5.0 ml of sterile saline. The mixture was vortexed, and dilutions were made and compared to a standard turbidity chart until the turbidity matched a 0.5 turbidity standard (a 0.5 MacFarland turbidity standard suspension). Serial dilutions were made as follows: (1) 0.5 ml of the 0.5 MacFarland turbidity standard was added to 4.5 ml of sterile normal saline (Tube A; expected population 10^5 cfu/ml); (2) 0.1 ml of the Tube A suspension was added to 9.9 ml of sterile normal saline (Tube B; expected population 10^3 cfu/ml); and (3) 0.1 ml of the Tube B suspension was added to 9.9 ml of sterile normal saline (Tube C; expected population 10 cfu/ml). Each serial dilution was vortexed for 30 seconds before the next transfer.
Tubes B and C were challenged with these cocktails. Each cocktail (24.0 ml) was placed into a sterile 115 ml plastic cup, and 1.0 ml of the yeast population from Tube B or C was added. The cups were mixed gently, capped and placed in the incubator for 24 hours at 35° C. After the prescribed incubation period, 1.0 ml of the yeast-cocktail mixture was removed from each tube and processed to obtain an enumeration of the surviving yeast organisms. The remaining mixture was placed back into the incubator and incubated for an additional 24 hours. After this incubation period, the cups were removed, swirled gently and 1.0 ml was removed, and the above process was repeated.
Enumeration of the yeast was performed as follows; each sample was tested in duplicate, One milliliter (1.0 ml) of year suspension was added to the top assembly of a sterile disposable filter apparatus which contained 99 ml of sterile normal saline. The contents were mixed gently and filtered. The filter pad was removed aseptically using sterile disposable forceps and placed on Sabouraud Agar plates. The plates were incubated at 35° C. for 24 hours, and the colonies were then counted.

[2] = test system: valve leaflet fibroblasts; details: for AVG incorporation of 3H-glycine: Example 10; for percent of control: Example 2
Procedure: (§1) Preferably, however, the tissue is incubated with a radioactively-labeled amino acid, and the incorporation of the amino acid into proteins is monitored by counting disintegrations per minute (DPM) per unit of tissue.
(§2) All of the valve leaflet halves were incubated for 48 hours at 37° C. in the antibiotic cocktails and then cryopreserved.
(§3) Experiment #2: Paired halves of leaflets were again used. One half was used as a fresh control and immediately labelled with ^3 H-glycine to determine leaflet fibroblast viability (see below). […] The antibiotic-treated leaflets were incubated for 48 hours at 37° C. in the antibiotic cocktails and then cryopreserved.
(§4) A 1.8 ml Nalge cryovial was used to contain the leaflet tissue. The freezing program takes the tissue from +4° to -80° C. in approx 80 to 90 minutes.
(§5) The valve leaflet halves were stored in liquid nitrogen freezer for at least two days, but no more than three weeks, before being thawed.
(§6) The valve leaflet halves were thawed by removing the valve tissue to be thawed from the liquid nitrogen freezer. As quickly as possible, the tissue was transferred to a 37° C. waterbath. When all of the ice had dissolved (about 2 minutes), the cryovial was transferred to a hood, and 4 ml of room temperature lactated Ringers plus 5% dextrose (DBLR) was dispensed into a 5-ml snap-cap tube (Falcon) for each cryovial being thawed. The exterior of the cryovial was rinsed with 70% isopropanol and any excess wiped away before opening. Using sterile forceps, the leaflet tissue was transferred into the tube containing the DBLR. The tissue was allowed to remain in D5LR for 5 minutes.
(§7) Tissue viability was assessed by the measurement of ^3 H-glycine incorporation into proteins as follows. The thawed valve leaflet halves were placed in snap-cap tubes (Falcon) containing 16 μCi of tritiated-glycine (DuPont New England Nuclear) in 1 ml of DMEM supplemented with 15 μg/ml ascorbic acid. Radiolabeled glycine incorporation was determined after a 48 hour incubation at 37° C. in an atmosphere consisting of 5% carbon dioxide in air. The tissue was then washed four times with phosphate-buffered saline, dehydrated with ethanol and ether, air dried and weighed. The tissue samples were then rehydrated with 200 μl of water and solubilized by the addition of 500 μl of 1M NaOH. After incubation at 60° C. for 1 hour, the samples were sonicated twice for 20-seconds. […] The filter discs were dried, and the proteins precipitated by addition of ice-cold 10% trichloroacetic acid for 30 minutes. This was followed by five ethanol rinses, two ether rinses, and drying. The discs were then placed in 10 ml of scintillation fluid (Cytoscint ES, ICN Biomedicals, Inc., Irvine, Calif.). Tritium incorporation was measured by scintillation counting using a LS1701 (Beckman Instruments, Inc., Palo Alto, Calif.).
(§8) The incorporation of ^3 H-glycine into proteins is expressed in disintegrations per minute (DPM) per mg of dry tissue.

yeast isolates = assay: yeast challenge of antibiotic cocktails, overall; assay type: cell-based; details: for fungicidal activity (in words): Example 16, ten donor tissue isolates, 24 hours; for antiyeast activity at doses which maintain tissue viability (in words): summary of Examples 14 and 15
Description: The ten yeast isolates tested were:

in vitro = details: human, heart valve leaflets, AVG % CONTRL, Example 3
Procedure: as §1, §2, §3, §4, §5, §6, §7, §8

bacteria = details: general statement; cited from earlier work
[3] = test system: valve leaflet fibroblasts; assay: cells; details: Homo sapiens, Fibroblast, read-out: AVG percent of control, Example 2
Procedure: as §1, §2, §3, §4, §5, §6, §7, §8

[4] = test system: cells responsible for allograft longevity in patients; details: literature: Hu et al., Lange and Hopkins, McNally and Brockbank; cited from earlier work

## OC(Cn1cncn1)(Cn1cncn1)c1ccc(F)cc1F [Fluconazole, fluconazole]
[1]; 24 hr
  surviving yeast, Tube B: 31 colonies
[1]; 48 hr
  surviving yeast, Tube B: 45 colonies
[1]
  fungicidal activity (in words): suggests a tolerance or static phenomenon
[2]; Example 1, 100 μg/ml fluconazole added
  viability after treatment (in words): not harmful to the tissue
Yeast isolates
  fungicidal activity (in words): did not affect the fungicidal activity greatly
  antiyeast activity at doses which maintain tissue viability (in words): Neither amphotericin B, nor fluconazole, alone substantially inhibits yeast growth at doses which substantially maintain tissue viability

## C[C@@H](O)[C@H]1C(=O)N2C(C(=O)O)=C(SCCN=CN)C[C@H]12 [Imipenem, imipenem]
In vitro; 12 μg/ml imipenem + rifampin 10 μg/ml
  viability: 86%
In vitro; 24 μg/ml imipenem + rifampin 10 μg/ml
  viability: 90%
In vitro; 48 μg/ml imipenem + rifampin 10 μg/ml
  viability: 104%
bacteria
  antibacterial activity (in words): active against most aerobic gram-positive and gram-negative bacteria and most anaerobic gram-positive and gram-negative bacteria
[2]; Example 8, 48 μg/ml imipenem, 24 h
  MEAN incorporation of 3H-glycine: 5269 DPM/mg
[2]; Example 8, 48 μg/ml imipenem, 48 h
  MEAN incorporation of 3H-glycine: 5316 DPM/mg
[2]; Example 8, 72 μg/ml imipenem, 24 h
  MEAN incorporation of 3H-glycine: 6897 DPM/mg
[2]; Example 8, 72 μg/ml imipenem, 48 h
  MEAN incorporation of 3H-glycine: 7198 DPM/mg
[2]; Example 8, 96 μg/ml imipenem, 24 h
  MEAN incorporation of 3H-glycine: 5885 DPM/mg
[2]; Example 8, 96 μg/ml imipenem, 48 h
  MEAN incorporation of 3H-glycine: 6526 DPM/mg

## CCN[C@@H]1C[C@H](N)[C@@H](O[C@H]2OC(CN)=CC[C@H]2N)[C@H](O)[C@H]1O[C@H]1OC[C@](C)(O)[C@H](NC)[C@H]1O [Netilmicin, netilmicin]
bacteria
  antibacterial activity (in words): effective against many aerobic gram-negative bacteria and some aerobic gram-positive bacteria
  lack of antibacterial activity (in words): inactive against most streptococci and most anaerobic bacteria
[2]; 20 μg/ml netilmicin, 24 hours
  AVG incorporation of 3H-glycine: 4213 DPM/mg
[2]; 30 μg/ml netilmicin, 24 hours
  AVG incorporation of 3H-glycine: 6805 DPM/mg
[2]; 50 μg/ml netilmicin, 24 hours
  AVG incorporation of 3H-glycine: 5815 DPM/mg
Yeast isolates
  fungicidal activity (in words): did not have any adverse effects on the fungicidal activity of fluoconazole and amphotericin B

## CO[C@H]1/C=C/O[C@@]2(C)Oc3c(C)c(O)c4c(O)c(c(/C=N/N5CCN(C)CC5)c(O)c4c3C2=O)NC(=O)/C(C)=C\C=C\[C@H](C)[C@H](O)[C@@H](C)[C@@H](O)[C@@H](C)[C@H](OC(C)=O)[C@@H]1C [Rifampin, rifampin]
[3]; 10 μg/ml rifampin
  activity at 10 µg/mL: 93%
[3]; 30 μg/ml rifampin
  activity at 30 µg/mL: 80%
[3]; 100 μg/ml rifampin
  activity at 100 µg/mL: 42%
[2]; 10 μg/ml rifampin
  percent of control: 96% and 110% and 91% and 75% and 73% and 114%
[2]; 30 μg/ml rifampin
  percent of control: 94%

## CN[C@H](CC(C)C)C(=O)N[C@H]1C(=O)N[C@@H](CC(N)=O)C(=O)N[C@H]2C(=O)N[C@H]3C(=O)N[C@H](C(=O)N[C@H](C(=O)O)c4cc(O)cc(O)c4-c4cc3ccc4O)[C@H](O)c3ccc(c(Cl)c3)Oc3cc2cc(c3O[C@@H]2O[C@H](CO)[C@@H](O)[C@H](O)[C@H]2O[C@H]2C[C@](C)(N)[C@H](O)[C@H](C)O2)Oc2ccc(cc2Cl)[C@H]1O [Vancomycin, vancomycin]
bacteria
  antibacterial activity (in words): active against many gram-positive organisms, including staphylococci, streptococci, enterococci, Clostridium and Corynebacterium
  lack of antibacterial activity (in words): inactive against gram-negative bacteria

## C[C@@H]1[C@H](O)[C@@H](C)/C=C/C=C/C=C/C=C/C=C/C=C/C=C/[C@H](O[C@@H]2O[C@H](C)[C@@H](O)[C@H](N)[C@@H]2O)C[C@@H]2O[C@](O)(C[C@@H](O)C[C@@H](O)[C@H](O)CC[C@@H](O)C[C@@H](O)CC(=O)O[C@H]1C)C[C@H](O)[C@H]2C(=O)O [Amphotericin B, amphotericin B]
[1]
  fungicidal activity (in words): fungicidal
[2]; Example 5, 0.3 μg/ml amphotericin B in the antibiotic mixture
  average viability (in words): average viability greater than the control
[2]; Example 11, 0.3 μg/ml amphotericin B, 24 hours
  MEAN incorporation of 3H-glycine: 4965 DPM/mg
[2]; Example 11, 0.6 μg/ml amphotericin B, 24 hours
  MEAN incorporation of 3H-glycine: 4960 DPM/mg
[2]; Example 11, 1.0 μg/ml amphotericin B, 24 hours
  MEAN incorporation of 3H-glycine: 4914 DPM/mg
[2]; Example 11, 2.0 μg/ml amphotericin B, 24 hours
  MEAN incorporation of 3H-glycine: 4236 DPM/mg
[2]; Example 11, 3.0 μg/ml amphotericin B, 24 hours
  MEAN incorporation of 3H-glycine: 4452 DPM/mg
Yeast isolates
  fungicidal activity (in words): shows greater fungicidal activity
  antiyeast activity at doses which maintain tissue viability (in words): Neither amphotericin B, nor fluconazole, alone substantially inhibits yeast growth at doses which substantially maintain tissue viability
[4]
  toxicity (in words): toxic to the cells responsible for allograft longevity in patients
